Measured values published in EP1043336A2, “Stereospecific antibodies for imidazolinone herbicides” (The Regents of the University of California, priority 1999, dated 2000).

Assays:
MAb 3A2 = assay: Indirect competition EIA, cross-reactivity with common agrochemicals (wells coated with hapten 17-OA); type: binding, mouse; conditions: for inhibition: 5-10 ppm
Procedure: EIAs were done essentially as described by Karu et al (1994). For indirect EIAs, hapten-protein conjugates were adsorbed to wells of Immulon 2™ 96-well plates (Dynatech) in 0.1 mL of coating buffer (0.015 M Na2CO3 ― 0.035 M NaHCO3 ―0.003 M NaN3, pH 9.6). PBS-Tween containing 0.05% gelatin, 0.45 micron-filtered, was used as the diluent for antibodies and antibody-analyte mixtures, and as a blocking solution to prevent adventitious binding. The detecting antibody for the indirect EIAs was alkaline phosphatase conjugated goat anti-mouse IgG and IgM The substrate solution for color development was p-nitrophenyl phosphate 1 mg/mL, in 10% (w/v) diethanolamine-HCl, pH 9.8 ― 0.5 mM MgCl2 ― 3 mM NaN3. • 1. Indirect competition EIA. Indirect competition EIA (immobilized hapten conjugate) was used to evaluate the responses of mice, screen the MAbs, and quantify imidazolinone analytes. Optimal amounts of imidazolinone-BSA or -OVA conjugate for plate coating and dilutions for the hybridoma culture supernate or antiserum were determined by checkerboard assay. To perform the assay, wells were coated overnight at 4°C with a limiting amount of conjugate in 0.1 mL of coating buffer. Imidazolinone standards (0.5 to 5000 ppb) or unknowns were mixed with a limiting amount of antiserum or hybridoma culture fluid in the diluent and incubated overnight at 4°C in tightly sealed polypropylene tubes. The coated wells were washed and blocked with 0.2 mL of 0.05% gelatin in PBS-Tween for 30 minutes at room temperature. After another wash, aliquots (0.1 mL) of the antibody-analyte mixture were added to wells, and the remainder of the assay was performed as previously described (Karu et al., 1994). • 2. Direct competition EIA. Direct EIAs were performed by capturing the MAb on microwells and allowing the analyte to compete with a HRP-conjugated hapten for binding. Bound HRP-conjugate was then detected with a commercial HRP substrate. The sensitivity of this assay was enhanced by use of a commercial enzymatic signal amplification kit (GIBCO-BRL). Wells were coated with 200 or 500 ng of affinity-purified goat anti-mouse IgG or anti-mouse IgG Fc in the coating buffer at 4°C overnight. The next day, the wells were washed and blocked with PBS-Tween-gelatin for 30 minutes at room temperature, and then incubated for 1.5 hours at room temperature with hybridoma culture supernate. The plates were washed with PBS-Tween, and 0.1 mL of diluent containing the analyte and a limiting amount of biotinylated imidazolinone was added for 1.5 h at room temperature. The wells were washed three times with PBS-Tween, and Extravidin-alkaline phosphatase conjugate (Sigma) was then added for 30 minutes at room temperature. The plates were washed again with TBS (0.05 M Tris-HCl, pH 7.5,― 0.15 M NaCl) to remove remaining inorganic phosphate, which can inhibit the GIBCO-BRL EIA Amplification system. Substrate solution for the amplification step (0.05 mL) was added for 15 minutes at room temperature, followed by 0.05 mL of the enzymatic amplifying solution and chromogen. Color development at 492 nm was recorded. • 3. EIA Data Analysis. Color development was monitored on a Multiskan EIA reader (Flow Laboratories) interfaced with a Macintosh computer, and the rates of the reaction were calculated by linear regression. Competition EIA dose- response curves were fitted with a 4-parameter logistic equation (Karu et al., 1994). […]

[1] = system: scFv p3A5.1c7 (scFv 3A5, SEQ.ID NO. 3); assay: Relative affinity of MAb and affinity-purified scFv by indirect EIA with equimolar protein; type: binding, mouse; conditions: indirect EIA on 16-BSA, scFv versus MAb 3A5
Procedure: The relative affinities of the MAbs and affinity-purified scFv were determined by indirect EIA using equimolar amounts of protein, essentially as described by Graham, B. M., et al. 1995. Cloning, expression, and characterization of a single-chain antibody fragment to the herbicide paraquat. J. Chem. Tech. Biotechnol. 63: 279-289. The results are illustrated in graphical form in Figures 15A (16-BSA) and 15B (17-OA), with the MAb represented by the solid line and the scFv represented by the broken line in each plot.

[2] = system: panel of monoclonal antibodies (MAbs); assay: Detection of imidazolinones by the panel of MAbs (EIA); type: binding, mouse
Procedure: EIAs were done essentially as described by Karu et al (1994). For indirect EIAs, hapten-protein conjugates were adsorbed to wells of Immulon 2™ 96-well plates (Dynatech) in 0.1 mL of coating buffer (0.015 M Na2CO3 ― 0.035 M NaHCO3 ―0.003 M NaN3, pH 9.6). PBS-Tween containing 0.05% gelatin, 0.45 micron-filtered, was used as the diluent for antibodies and antibody-analyte mixtures, and as a blocking solution to prevent adventitious binding. The detecting antibody for the indirect EIAs was alkaline phosphatase conjugated goat anti-mouse IgG and IgM The substrate solution for color development was p-nitrophenyl phosphate 1 mg/mL, in 10% (w/v) diethanolamine-HCl, pH 9.8 ― 0.5 mM MgCl2 ― 3 mM NaN3. • 1. Indirect competition EIA. Indirect competition EIA (immobilized hapten conjugate) was used to evaluate the responses of mice, screen the MAbs, and quantify imidazolinone analytes. Optimal amounts of imidazolinone-BSA or -OVA conjugate for plate coating and dilutions for the hybridoma culture supernate or antiserum were determined by checkerboard assay. To perform the assay, wells were coated overnight at 4°C with a limiting amount of conjugate in 0.1 mL of coating buffer. Imidazolinone standards (0.5 to 5000 ppb) or unknowns were mixed with a limiting amount of antiserum or hybridoma culture fluid in the diluent and incubated overnight at 4°C in tightly sealed polypropylene tubes. The coated wells were washed and blocked with 0.2 mL of 0.05% gelatin in PBS-Tween for 30 minutes at room temperature. After another wash, aliquots (0.1 mL) of the antibody-analyte mixture were added to wells, and the remainder of the assay was performed as previously described (Karu et al., 1994). • 2. Direct competition EIA. Direct EIAs were performed by capturing the MAb on microwells and allowing the analyte to compete with a HRP-conjugated hapten for binding. Bound HRP-conjugate was then detected with a commercial HRP substrate. The sensitivity of this assay was enhanced by use of a commercial enzymatic signal amplification kit (GIBCO-BRL). Wells were coated with 200 or 500 ng of affinity-purified goat anti-mouse IgG or anti-mouse IgG Fc in the coating buffer at 4°C overnight. The next day, the wells were washed and blocked with PBS-Tween-gelatin for 30 minutes at room temperature, and then incubated for 1.5 hours at room temperature with hybridoma culture supernate. The plates were washed with PBS-Tween, and 0.1 mL of diluent containing the analyte and a limiting amount of biotinylated imidazolinone was added for 1.5 h at room temperature. The wells were washed three times with PBS-Tween, and Extravidin-alkaline phosphatase conjugate (Sigma) was then added for 30 minutes at room temperature. The plates were washed again with TBS (0.05 M Tris-HCl, pH 7.5,― 0.15 M NaCl) to remove remaining inorganic phosphate, which can inhibit the GIBCO-BRL EIA Amplification system. Substrate solution for the amplification step (0.05 mL) was added for 15 minutes at room temperature, followed by 0.05 mL of the enzymatic amplifying solution and chromogen. Color development at 492 nm was recorded. • 3. EIA Data Analysis. Color development was monitored on a Multiskan EIA reader (Flow Laboratories) interfaced with a Macintosh computer, and the rates of the reaction were calculated by linear regression. Competition EIA dose- response curves were fitted with a 4-parameter logistic equation (Karu et al., 1994).

[3] = system: AHAS isozymes, designated I and II; conditions: isozymes from Black Mexican Sweet corn; cited from earlier work
[4] = system: scFv p3A5.1c7 (scFv 3A5, SEQ.ID NO. 3); assay: Indirect competition EIA with scFv (16-BSA coating), compared with MAb 3A5.1; type: binding, mouse; conditions: scFv on 16-BSA versus MAb 3A5.1

Compound	cross-reactivity (MAb 3A2; up to 10 ppm)	further results
CCCN(CCC)C(=O)SCC [EPTC, S-ethyl dipropylthiocarbamate]	No cross-reactivity	–
CCc1cccc(CC)c1N(COC)C(=O)CCl [alachlor, 2-chloro-2'-6'-diethyl-N-(methoxymethyl)-acetanilide]	No cross-reactivity	–
CCNc1nc(Cl)nc(NC(C)C)n1 [atrazine, Atrazine]	No cross-reactivity	–
CCOC(=O)c1ccccc1S(=O)(=O)NC(=O)Nc1nc(Cl)cc(OC)n1 [chlorimuron ethyl, ethyl 2-[[[[(4-chloro-6-methoxypyrimidin 2-yl)amino]carbonyl]amino]sulfonyl]benzoate]	–	inhibition (MAb 3A2): 10-15%; cross-reactivity (MAb 3A2; up to 5 ppm): did not cross-react
COc1nc(C)nc(NC(=O)NS(=O)(=O)c2ccccc2Cl)n1 [chlorsulfuron, 2-chloro-N[(4-methoxy-6-methyl-1,3,5 triazin-2-yl)aminocarbonyl]benzenesulfonamide]	–	inhibition (MAb 3A2): 10-15%; cross-reactivity (MAb 3A2; up to 5 ppm): did not cross-react
CC(C)N.O=C(O)CNCP(=O)(O)O [glyphosate, N-(phosphono-methyl) glycine isopropylamine salt]	No cross-reactivity	–
CC(C)C1(C)N=C(c2ncc(C=CC(=O)O)cc2C(=O)O)NC1=O (stereo not shown) [hapten 16, imazapyr-5-propenoic acid]	–	affinity of the scFv relative to that of the MAb (fold poorer) [1]: about 1,000 fold
Cc1cnc(C2=NC(C)(C(C)C)C(=O)N2)c(C(=O)O)c1 (stereo not shown) [imazapic, 5-methyl-2-(4-isopropyl-4-methyl-5-oxo-2-imidazolin-2-yl) nicotinic acid]	–	detection range [2]: 3 to 30 ng/mL
CC(C)C1(C)N=C(c2ncccc2C(=O)O)NC1=O (stereo not shown) [imazapyr, 2-(4-isopropyl-4-methyl-5-oxo-2-imidazolin-2-yl) nicotinic acid]	–	sensitivity of AHAS II vs AHAS I to inhibition [3]: significantly more sensitive; detection range [2]: 300-500 ppb
CC(C)C1(C)N=C(c2nc3ccccc3cc2C(=O)O)NC1=O (stereo not shown) [imazaquin, 2-(4-isopropyl-4-methyl-5-oxo-2-imidazolin-2-yl)-3-quinoline carboxylic acid]	–	I50 with scFv relative to I50 with the MAb (higher = less sensitive) [4]: about two-fold; detection range [2]: 3 to 30 ng/mL
CCc1cccc(C)c1N(C(=O)CCl)C(C)COC (stereo not shown) [metolachlor, 2-chloro-N-(2-ethyl-6-methylphenyl)-N-(2-methoxy-1-methylethyl) acetamide]	No cross-reactivity	–
CCSC(=O)N1CCCCCC1 [molinate, S-ethyl-hexahydro-1-H-azepine-1-carbothioate]	No cross-reactivity	–
CCOc1cc(Oc2ccc(C(F)(F)F)cc2Cl)ccc1[N+](=O)[O-] [oxyfluorfen, 2-chloro-1-(3-ethoxy-4-nitrophenoxy)-4-(trifluoromethyl) benzene]	No cross-reactivity	–
C[n+]1ccc(-c2cc[n+](C)cc2)cc1.[Cl-].[Cl-] [paraquat, 1,1'-dimethyl-4,4'-bipyridinium dichloride]	No cross-reactivity	–
CCC(CC)Nc1c([N+](=O)[O-])cc(C)c(C)c1[N+](=O)[O-] [pendimethalin, N-(1-ethylpropyl)-3,4-dimethyl-2,6-dinitrobenzenamine]	No cross-reactivity	–
COC(=O)Nc1cccc(OC(=O)Nc2cccc(C)c2)c1 [phenmedipham, 3-methoxycarbonylaminophenyl-N(3'-methylphenyl)carbamate]	No cross-reactivity	–
CCC/C(=N\OCC)C1=C(O)CC(CC(C)SCC)CC1=O (stereo not shown) [sethoxydim]	No cross-reactivity	–
a mixture of methyl 6-(4-isopropyl-4-methyl-5-oxo-2-imidazolin-2-yl) m-toluate and methyl 2-(4-isopropyl-4-methyl-5-oxo-2-imidazolin-2-yl) p-toluate [imazamethabenz-methyl]	–	detection range [2]: 300-500 ppb
